From article PMC3914206 come the findings set out here.

What all share (type): binding
Holding throughout (conditions): Compound Concentration 10 µM

Test [1] addresses T1, panel of 442 kinases (Homo sapiens, UniProt Q16584).
T1 construct: purchased KINOMEscan
The text has this: (§1) We assessed the selectivity of members of this scaffold using the KINOMEscan methodology across a near comprehensive panel of 442 kinases [[18,27]].

For test [2], the target named is T2, panel of 442 kinases (Homo sapiens, UniProt P00533, L858R).
T2 construct: purchased KINOMEscan
Source text: as §1

The target in test [3] is T3, panel of 442 kinases (Homo sapiens, UniProt P52564).
T3 construct: purchased KINOMEscan
T3 sequence (P52564 1-334): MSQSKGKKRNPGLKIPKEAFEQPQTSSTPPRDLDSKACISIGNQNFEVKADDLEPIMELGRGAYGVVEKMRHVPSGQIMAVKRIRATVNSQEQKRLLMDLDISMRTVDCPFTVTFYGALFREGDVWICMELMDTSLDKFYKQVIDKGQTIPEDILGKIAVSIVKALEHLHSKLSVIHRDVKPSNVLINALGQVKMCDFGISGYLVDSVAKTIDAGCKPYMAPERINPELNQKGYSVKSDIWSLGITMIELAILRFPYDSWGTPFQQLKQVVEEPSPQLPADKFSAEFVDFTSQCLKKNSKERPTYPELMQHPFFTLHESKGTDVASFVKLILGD
Source text: as §1

Structures are written as SMILES.

T1 sequence (Q16584 whole entry): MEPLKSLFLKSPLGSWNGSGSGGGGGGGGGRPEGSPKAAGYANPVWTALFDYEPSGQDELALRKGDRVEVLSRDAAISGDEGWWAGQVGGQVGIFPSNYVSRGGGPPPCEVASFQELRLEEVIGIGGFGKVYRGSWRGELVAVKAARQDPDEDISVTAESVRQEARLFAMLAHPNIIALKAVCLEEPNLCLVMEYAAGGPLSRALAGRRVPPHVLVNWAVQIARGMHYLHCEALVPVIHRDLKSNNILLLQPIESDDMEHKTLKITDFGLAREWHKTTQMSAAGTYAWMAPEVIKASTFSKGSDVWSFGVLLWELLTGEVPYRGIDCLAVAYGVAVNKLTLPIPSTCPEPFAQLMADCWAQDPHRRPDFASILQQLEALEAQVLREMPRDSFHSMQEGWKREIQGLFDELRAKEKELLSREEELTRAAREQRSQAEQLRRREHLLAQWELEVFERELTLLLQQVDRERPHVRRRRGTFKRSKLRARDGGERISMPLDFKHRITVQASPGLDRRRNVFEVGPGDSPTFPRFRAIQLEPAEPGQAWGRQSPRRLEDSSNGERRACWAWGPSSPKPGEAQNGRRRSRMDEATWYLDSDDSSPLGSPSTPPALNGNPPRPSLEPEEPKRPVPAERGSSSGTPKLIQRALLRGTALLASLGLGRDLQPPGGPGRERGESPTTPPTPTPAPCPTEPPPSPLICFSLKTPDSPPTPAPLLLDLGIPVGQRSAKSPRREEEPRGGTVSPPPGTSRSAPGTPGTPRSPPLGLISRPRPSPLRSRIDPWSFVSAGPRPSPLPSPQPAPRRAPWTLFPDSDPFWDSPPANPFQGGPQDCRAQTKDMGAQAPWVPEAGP
T2 sequence (P00533 25-1210 L858R): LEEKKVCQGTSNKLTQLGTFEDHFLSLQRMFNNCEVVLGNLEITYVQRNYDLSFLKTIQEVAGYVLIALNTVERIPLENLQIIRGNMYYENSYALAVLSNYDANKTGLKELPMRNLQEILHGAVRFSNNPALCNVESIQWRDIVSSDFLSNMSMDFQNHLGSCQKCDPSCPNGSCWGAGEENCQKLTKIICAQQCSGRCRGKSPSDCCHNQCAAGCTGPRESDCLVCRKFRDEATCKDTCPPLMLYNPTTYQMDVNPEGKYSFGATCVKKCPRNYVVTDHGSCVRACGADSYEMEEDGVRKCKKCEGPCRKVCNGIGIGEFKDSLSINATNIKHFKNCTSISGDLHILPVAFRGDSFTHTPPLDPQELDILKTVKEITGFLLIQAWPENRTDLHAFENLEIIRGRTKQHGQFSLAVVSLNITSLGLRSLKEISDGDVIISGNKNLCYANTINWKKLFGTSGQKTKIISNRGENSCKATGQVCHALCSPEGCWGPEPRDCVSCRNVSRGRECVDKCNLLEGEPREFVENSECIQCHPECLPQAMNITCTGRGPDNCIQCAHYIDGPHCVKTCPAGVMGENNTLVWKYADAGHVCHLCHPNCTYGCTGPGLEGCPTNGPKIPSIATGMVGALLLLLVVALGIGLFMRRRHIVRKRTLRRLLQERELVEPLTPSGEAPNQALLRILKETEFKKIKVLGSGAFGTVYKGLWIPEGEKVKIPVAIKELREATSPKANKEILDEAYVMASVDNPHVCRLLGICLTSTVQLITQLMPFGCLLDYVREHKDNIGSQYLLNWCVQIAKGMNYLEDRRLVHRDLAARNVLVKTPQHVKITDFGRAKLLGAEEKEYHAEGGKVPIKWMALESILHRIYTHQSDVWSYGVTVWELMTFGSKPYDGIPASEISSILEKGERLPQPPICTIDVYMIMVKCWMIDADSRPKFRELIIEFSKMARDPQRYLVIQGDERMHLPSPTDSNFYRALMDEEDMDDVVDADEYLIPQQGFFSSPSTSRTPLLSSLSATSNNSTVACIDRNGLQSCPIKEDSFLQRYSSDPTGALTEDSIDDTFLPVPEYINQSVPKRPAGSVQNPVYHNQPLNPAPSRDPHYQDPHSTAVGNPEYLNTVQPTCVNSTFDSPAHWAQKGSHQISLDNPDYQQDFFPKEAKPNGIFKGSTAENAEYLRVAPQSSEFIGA

Turning to `CCOc1cc(C(=O)N2CCC(N3CCN(C)CC3)CC2)ccc1Nc1ncc2c(n1)N(C1CCCC1)c1ccccc1C(=O)N2C` [Compound 26], the “KINOMEscan: MLK3” value in test [1] is reported as 100. Moreover, the “KINOMEscan: EGFR(L858R)” value in test [2] is recorded as 100. In addition, the “KINOMEscan: MEK6” value in test [3] is on record as 84.
`COc1cc(C(=O)N2CCC(N3CCN(C)CC3)CC2)ccc1Nc1ncc2c(n1)N1CCc3cccc(c31)C(=O)N2C` [Compound 24]: the “KINOMEscan: EGFR(L858R)” value in test [2] was found to be 62. In addition, in test [3], the “KINOMEscan: MEK6” value is 66.
Regarding `COc1cc(C(=O)N2CCC(N3CCN(C)CC3)CC2)ccc1Nc1ncc2c(n1)N(C)c1ccccc1C(=O)N2C` [15 (LRRK2-IN-1)], the “KINOMEscan: MLK3” value in test [1] amounted to 100. For the same compound, the “KINOMEscan: EGFR(L858R)” value in test [2] was found to be 79. In test [3], the “KINOMEscan: MEK6” value came to 83.
Take `COc1cc(C(=O)N2CCC(N3CCN(C)CC3)CC2)ccc1Nc1ncc2c(n1)N(C1CCCC1)c1ccccc1C(=O)N2C` [Compound 25, 11-cyclopentyl-2-((2-methoxy-4-(4-(4-methylpiperazin-1-yl)piperidine-1-carbonyl)phenyl)amino)-5-methyl-5H-benzo[e]pyrimido[5,4-b][1,4]diazepin-6(11H)-one]: in test [1], the “KINOMEscan: MLK3” value was 100. For the same compound, in test [2], the “KINOMEscan: EGFR(L858R)” value is listed as 83. Also, the “KINOMEscan: MEK6” value in test [3] is recorded as 61.
